Where “and” joins values, the source holds several entries; their conditions need not be identical. Equal values may be shown once. Read-outs that look alike come from different tables or passages of the source.
Key:
Minipig Plasma Proteins = assay: plasma protein binding by Rapid Equilibrium Dialysis, minipig; format: in vitro ADME
From the text: (§1) The blood-to-plasma ratios were similar across species (1.22-1.36, Table 9).

[1] = as above; format: in vitro ADME; details: minipig, plasma
From the text: as §1

[2] = estimation of human plasma concentration following topical administration; details: for Estimated AUC24 h / Estimated Css: 70 kg
Protocol: The plasma clearance (CLhuman) was estimated from the in vitro and preclinical pharmacokinetic studies.
An estimated skin flux prediction was conducted, assuming a 2-hour lag time and receiving fluid levels obtained every two hours at the LLOQ level for 16 hours, leading to a calculated flux of 0.048 ng/cm^2/h.
Healthy skin is an effective protective barrier to most xenobiotics; therefore the relevance of a flux value derived from the ex vivo skin penetration assay, which uses healthy human skin from abdominoplasty surgeries, may not translate to what is observed following application onto unhealthy skin. […] Calculation of human systemic exposure with a 100-fold increase in flux has also been performed to account for the worst case estimation. A 10% body surface area (1800 cm^2) in human was used for this estimation. Therefore, for the purpose of safety margin estimation and considering the conditions explained herein, the estimated Css,human is 0.34 ng/mL with the corresponding AUCss, 24 h is 8.2 ng*h/mL. In clinical practice, topical treatment for atopical dermatitis can be up to 50% BSA (9000 cm2) and therefore corresponding estimated Css,human and AUCss, 24 h with 10-fold increase in flux is 0.17 ng/mL and 4.1 ng*h/mL.

[3] = flux 0.48 (10-fold increase), dose area 9000 cm^2, clearance 6 ml/min/kg
[4] = flux 4.8 (100-fold increase), dose area 1800 cm^2, clearance 6 ml/min/kg

CC(C)c1c(O)cc(-c2cc3ccccc3cn2)cc1O
recovery at 4 h, 2 μM (Minipig Plasma Proteins): 95.6% | % Unbound Replicate (Minipig Plasma Proteins; 2 μM): 2.52% and 1.57% | Mean % Stability at 4 hrs (Minipig Plasma Proteins; 2 μM): 107% | fraction unbound at 4 h, 2 μM ([1]; read-out: % Unbound Mean (% CV)): 0.0198 | fraction unbound at 4 h, 2 μM ([1]; read-out: % Unbound Replicate): 0.0187 | fraction unbound at 4 h, 2 μM ([1]; read-out: Mean % Bound (converted)): 0.02 | lowest predicted human clearance ([2]; allometric scaling with plasma protein binding correction): 6 mL/min/kg | Topical Skin Flux (calculated) ([2]; assuming 2-hour lag time and receiving fluid levels at the LLOQ for 16 hours): 0.048 ng/cm^2/h | Estimated AUC24 h [2, 3]: 4.1 ng·h/mL | Estimated Css [2, 3]: 0.17 ng/mL | Estimated AUC24 h [2, 4]: 8.2 ng·h/mL | Estimated Css [2, 4]: 0.34 ng/mL

From US20220017468A1, “ISOQUINOLINE COMPOUNDS AND THEIR USE IN TREATING AhR IMBALANCE” (Dermavant Sciences GmbH, priority 2020, published 2022)
